Test results: ChEMBL document CHEMBL1145136, “Molecular determinants of steroid inhibition for the mouse constitutive androstane receptor” (J Med Chem, 2003)

Molecular target: T1, mouse constitutive androstane receptor (mCAR, NR1I3) (Mus musculus, UniProt O35627)
T1 sequence (O35627 whole entry): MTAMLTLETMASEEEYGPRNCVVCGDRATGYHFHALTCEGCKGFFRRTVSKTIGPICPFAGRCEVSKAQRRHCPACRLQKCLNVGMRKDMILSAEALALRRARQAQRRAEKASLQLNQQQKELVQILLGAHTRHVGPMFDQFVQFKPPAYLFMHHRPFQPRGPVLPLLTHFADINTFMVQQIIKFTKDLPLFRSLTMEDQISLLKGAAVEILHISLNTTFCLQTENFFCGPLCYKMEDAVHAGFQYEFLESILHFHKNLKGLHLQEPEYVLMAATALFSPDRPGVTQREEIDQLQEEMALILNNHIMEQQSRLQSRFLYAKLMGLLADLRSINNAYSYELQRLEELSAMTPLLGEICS
Test: Inhibition of mouse constitutive androstane receptor (mCAR) activity at 10 uM was determined as percent remaining activity
Conditions: read-out: Remaining activity

In order of rising activity at 10 µM:
1. CC12C=CCC1C1CC[C@H]3C[C@H](O)CCC3(C)C1CC2 (stereo partly specified)  4%
2. C[C@@]12CCC[C@H]1[C@@H]1CC[C@H]3C[C@H](O)CC[C@]3(C)[C@H]1CC2  4%
3. C[C@@]12CCC[C@H]1[C@@H]1CC[C@@H]3C[C@H](O)CC[C@]3(C)[C@H]1CC2  4%
4. CC12C=CCC1C1CC[C@H]3CC(=O)CCC3(C)C1CC2 (stereo partly specified)  5%
5. CC12C=CCC1C1CCC3=CC(=O)CCC3(C)C1CC2 (stereo unspecified)  7%
6. CC12CCC[C@H]1[C@@H]1CC[C@H]3CC(=O)CCC3(C)[C@H]1CC2 (stereo partly specified)  12%
7. CC(=O)[C@H]1CC[C@H]2[C@@H]3CC[C@H]4C[C@H](O)CC[C@]4(C)[C@H]3CC[C@]12C [BREXANOLONE]  19%
8. CC(=O)[C@H]1CC[C@H]2[C@@H]3CC[C@@H]4CC(=O)CC[C@]4(C)[C@H]3CC[C@]12C  20%
9. CC12C=CCC1C1CC[C@H]3C[C@@H](O)CCC3(C)C1CC2 (stereo partly specified)  28%
10. CC12CC[C@H]3[C@@H](CC[C@H]4CC(=O)CCC43C)[C@@H]1CCC2=O (stereo partly specified)  34%
11. CC12CCC3C(CCC4=CC(=O)[C@H](O)CC43C)C1CCC2=O (stereo partly specified)  41%
12. CC12CCC3C(CC[C@H]4CC=CCC34C)C1CCC2=O (stereo partly specified)  42%
13. CC12CC[C@H]3[C@@H](CC[C@@H]4CCCCC43C)[C@@H]1CCC2=O (stereo partly specified)  45%
14. CCC1CC[C@H]2[C@@H]3CC[C@H]4CC(=O)CCC4(C)[C@H]3CCC12C (stereo partly specified)  52%
15. CC12CCC(=O)C[C@@H]1CC[C@@H]1[C@@H]2CCC2(C)[C@@H](O)CC[C@@H]12 (stereo partly specified)  53%
16. C[C@]12CCC(=O)C(O)=C1CC[C@@H]1[C@@H]2CC[C@]2(C)C(=O)CC[C@@H]12 [FORMESTANE]  53%
17. C[C@@]12CCC[C@H]1[C@@H]1CCc3cc(O)ccc3[C@H]1CC2  56%
18. C[C@]12CCC(=O)C=C1CC[C@@H]1[C@@H]2CC[C@]2(C)C(=O)CC[C@@H]12 [ANDROSTENEDIONE]  56%
19. C[C@]12CC[C@H]3[C@@H](CCC4=CC(=O)CC[C@@]43C)[C@@H]1CC[C@@H]2C(=O)CO [DESOXYCORTICOSTERONE]  58%
20. CC12CCC3C(CCC4=CC(=O)CCC43C)C1C[C@@H](O)C2=O (stereo partly specified)  62%
21. CC12CC[C@@H](O)C[C@@H]1CC[C@@H]1[C@@H]2CCC2(C)[C@@H](O)CC[C@@H]12 (stereo partly specified)  63%
22. CC12CCC3C(CCC4=C[C@H](O)CCC43C)C1CCC2=O (stereo partly specified)  66%
23. C[C@]12CCC(=O)C=C1CCC1[C@@H]2[C@@H](O)C[C@@]2(C)[C@H]1CC[C@]2(O)C(=O)CO (single isomer, unassigned) [HYDROCORTISONE]  68%
24. C[C@]12CCC(=O)C[C@@H]1CC[C@@H]1[C@@H]2CC[C@]2(C)[C@@H](O)CC[C@@H]12 [STANOLONE]  69%
25. C[C@]12CC[C@H](O)CC1=CC[C@@H]1[C@@H]2CC[C@]2(C)C(=O)CC[C@@H]12 [PRASTERONE]  71%
26. CC(=O)[C@H]1CC[C@H]2[C@@H]3CC[C@H]4CC(=O)CC[C@]4(C)[C@H]3CC[C@]12C  73%
27. C[C@]12CC[C@H]3[C@@H](CCC4=CC(=O)CC[C@@]43C)[C@@H]1CC[C@H]2O [EPITESTOSTERONE]  73%
28. C[C@@H]1C[C@H]2[C@@H]3CCC4=CC(=O)C=C[C@]4(C)[C@@]3(F)[C@@H](O)C[C@]2(C)[C@@]1(O)C(=O)CO [DEXAMETHASONE]  75%
29. C[C@]12CC[C@H]3[C@@H](CCC4=CC(=O)CC[C@@]43C)[C@@H]1CC[C@@H]2O [TESTOSTERONE]  78%
30. CC12CC[C@@H]3C4CCC(=O)C[C@@H]4CC[C@H]3[C@@H]1CCC2=O (stereo partly specified)  80%
31. C[C@]12CCC(=O)C=C1CCC1[C@@H]2C(=O)C[C@@]2(C)[C@H]1CC[C@]2(O)C(=O)CO (single isomer, unassigned) [CORTISONE]  80%
32. C[C@]12C[C@H](O)[C@H]3[C@@H](CCC4=CC(=O)CC[C@@]43C)[C@@H]1CC[C@@H]2C(=O)CO [CORTICOSTERONE]  80%
33. CC12CCC(=O)C=C1CCC1C2CCC2(C)C1CC[C@@H]2C(=O)O (stereo partly specified)  81%
34. CC12CCC3C(C[C@H](O)C4=CC(=O)CCC43C)C1CCC2=O (stereo partly specified)  81%
35. C[C@]12CCC(=O)C=C1CC[C@@H]1[C@@H]2[C@@H](O)C[C@]2(C)C(=O)CC[C@@H]12  83%
36. CC12CCC3C(C[C@@H](O)C4=CC(=O)CCC43C)C1CCC2=O (stereo partly specified)  89%
37. C[C@]12C=CC(=O)C=C1CC[C@@H]1[C@@H]2CC[C@]2(C)C(=O)CC[C@@H]12 [ANDROSTENEDONE]  89%
38. CC12CCC3C(CC[C@H]4CC(=O)C=CC34C)C1CCC2=O (stereo partly specified)  90%
39. CC12CC[C@@H]3C4CC[C@@H](O)C[C@@H]4CC[C@H]3[C@@H]1CCC2=O (stereo partly specified)  91%
40. CC(=O)[C@H]1CC[C@H]2[C@@H]3CC=C4C[C@@H](O)CC[C@]4(C)[C@H]3CC[C@]12C [PREGNENOLONE]  95%
41. CC12CCC3C(C1CCC2=O)[C@H](O)CC1=CC(=O)CCC13C (stereo partly specified)  97%

Molecular target: T2, Nuclear receptor subfamily 1 group I member 3 (Mus musculus, UniProt O35627)
T2 sequence (O35627 whole entry): T1 sequence (O35627 whole entry)
Test: Inhibitory concentration against mammalian m-constitutive androstane receptor (mCAR) activity
Conditions: not given

In order of rising IC50:
1. C[C@]12CC[C@@H](O)C[C@@H]1CC[C@@H]1[C@@H]2CC[C@]2(C)C=CC[C@@H]12 [ANDROSTENOL]  0.25 µM
2. C[C@]12CC[C@H]3[C@@H](CCC4=CC(=O)CC[C@@]43C)[C@@H]1CC[C@@H]2O [TESTOSTERONE]  30 µM

Molecular target: T2, Nuclear receptor subfamily 1 group I member 3
Test: Inhibitory concentration against mouse constitutive androstane receptor (mCAR) activity was determined as pIC50
Conditions: not given

In order of falling IC50:
1. CC12CCC(=O)C=C1CCC1C2CCC2(C)C1CC[C@@H]2C(=O)O (stereo partly specified)  39.8 µM
2. CC12CC[C@H]3[C@@H](CC[C@H]4CC(=O)CCC43C)[C@@H]1CCC2=O (stereo partly specified)  5.01 µM
3. CC12C=CCC1C1CCC3=CC(=O)CCC3(C)C1CC2 (stereo unspecified)  0.794 µM
